Assay results reported in PMC4039224, “Cadherin-11 in poor prognosis malignancies and rheumatoid arthritis: common target, common therapies” (Oncotarget, 2013).
Values belong to the compound of their own block, whether it stands above or below them.

Columns and labels:
[1] = target: T1, mouse CDH11 (EC1-2 domain) (Mus musculus, UniProt P55288); assay: SPR competition of homophilic CDH11 binding, Biacore T200 CM5; conditions: 6.25-200 uM compound co-injected with 2.5 uM EC1-2; pH 7.4 HEPES, 150 mM NaCl, 3 mM CaCl2, 1% DMSO; inhibits homodimerization, W-binding pocket (modelled); salt form ambiguous (b61 vs Table 1)
T1 construct: extracellular domains EC1-EC2 only; wild-type soluble EC1-2, and C-terminally cysteine-tagged EC1-2 immobilised on the SPR chip; forms homodimer
T1 sequence (P55288 54-268 limits assumed): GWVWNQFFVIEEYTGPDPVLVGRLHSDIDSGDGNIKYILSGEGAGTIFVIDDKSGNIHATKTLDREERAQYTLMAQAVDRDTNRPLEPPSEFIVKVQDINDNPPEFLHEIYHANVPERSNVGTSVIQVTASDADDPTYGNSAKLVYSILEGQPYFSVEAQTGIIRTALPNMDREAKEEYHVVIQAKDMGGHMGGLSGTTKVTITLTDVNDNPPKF

[2] = target: T1, mouse CDH11 (EC1-2 domain); assay: native gel, dimer fraction; assay type: binding; conditions: 1:1 molar ratio with purified CDH11 EC1-2, compound in DMSO; inhibits homodimerization; species of the gel protein not stated again
[3] = target: wild type mouse cadherin-11 (CDH11) EC1-2 (mouse); assay: native gel or EMSA; purified CDH11 EC1-2 without and with celecoxib (in DMSO, 1:1 molar ratio); monomer and dimer fractions

Compound: Oc1ccc(-c2cccnc2-c2ccccc2)cc1 [Sd-133, 4-(2-phenyl-3-pyridyl)phenol]
SPR competition of homophilic CDH11 binding, Biacore T200 CM5 [1]: Sd-133 competed with CDH11 (ligand) in binding to immobilized CDH11 protein

Compound: Cc1ccc(-c2cc(C(F)(F)F)nn2-c2ccc(S(N)(=O)=O)cc2)cc1 [celecoxib, 4-[5-(4-methylphenyl)-3-(trifluoromethyl)pyrazol-1-yl]benzenesulfonamide]
native gel, dimer fraction [2]: Note that celecoxib reduces the dimer fraction

stoichiometry N [3]: 2
Compound: wild type mouse cadherin-11 (CDH11) EC1-2 (domain or fragment)
